Experimental data from patent US10370388B2, “Heterocyclic compounds and methods of their use” (NOVARTIS AG, priority 2012, dated 2019).

How the values were obtained:
NG108-15 neurite cells = assay: AT2 receptor neurite outgrowth assay; assay type: cell-based; conditions: NG108-15 cells, in the presence of angiotensin II 0.1 μM, compound 0.003-10 μM
Procedure: Biological Example 3: AT2 Receptor Neurite Outgrowth Assay
The general methodology of Wallinder (2008) and references cited therein was used to assess the effect of the compounds of the present invention on neurite outgrowth. The assay was adapted for high content screening.
EMA1087 is a known AT2 receptor agonist described as “compound 21” in Wan et al. 2004. PD-123,319 is a known, commercially available AT2 receptor antagonist. The results were analyzed by immunofluorescence quantitative analysis. Neurite outgrowth was quantified with neurite average length using Cellomics software. Results are expressed as the mean±SEM, each conducted in triplicate. Statistical significance, compared with Ang II control: *p<0.05, **p<0.01, and ***p<0.001. NS: no significant difference. ND: not determined. FIGS. 1 to 5 show neurite outgrowth was inhibited by the AT2 receptor antagonists, PD-126,055 and compounds 6, 15, 21 and 28.

AT2 receptor = AT2 receptor (Homo sapiens (Human), UniProt P50052); assay: AT2 receptor binding assay ([125I]-CGP42112A, HEK293/AT2 receptor cell membranes); conditions: displacement of [125I]-CGP42112A
Sequence of AT2 receptor (P50052 whole entry, species assumed): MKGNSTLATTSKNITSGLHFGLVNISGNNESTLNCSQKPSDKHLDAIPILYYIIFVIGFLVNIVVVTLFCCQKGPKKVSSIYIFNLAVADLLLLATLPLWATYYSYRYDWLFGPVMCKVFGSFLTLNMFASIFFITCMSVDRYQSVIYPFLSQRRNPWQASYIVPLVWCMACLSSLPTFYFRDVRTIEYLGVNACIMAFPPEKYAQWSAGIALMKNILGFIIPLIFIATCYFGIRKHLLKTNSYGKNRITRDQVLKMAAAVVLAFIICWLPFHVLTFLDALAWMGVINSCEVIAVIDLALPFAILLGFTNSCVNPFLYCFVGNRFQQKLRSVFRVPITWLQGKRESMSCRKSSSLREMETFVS
Procedure: Trypsin-EDTA (for preparation of 100 mL) • Trypsin 0.25 g • 2% EDTA 2 mL • PBS 98 mL • Dissolve trypsin in 2% EDTA and PBS completely; sterilize the solution by passing through a […] membrane filter; store at 4° C. • 2. […] Add slowly with stirring. • Dilute to 1 liter with ddH2O. • Sterilize the medium immediately by filtration. • Store at 4° C. • 3. TE buffer • 20 mM Tris-HCl, pH 7.4, • 5 mM EDTA • 4. Binding Assay Buffer • 50 mM Hepes, pH 7.4 • 5 mM MgCl2 • 1 mM CaCl2 • 0.2% BSA • 5.
Cells were ready for transfection after overnight incubation (the confluence reaches around 80%). • 75 μL Lipofectamine™2000 diluted in 6.25 mL OptiMEM I Reduced Serum Medium, was mixed gently, and incubated at room temperature for 5 minutes. 50 μg expression plasmid DNA diluted in 6.25 mL OptiMEM I Reduced Serum Medium without serum was mixed gently. • After the 5 minute incubation, the diluted DNA was combined with the diluted Lipofectamine™2000 (total volume is 12.5 mL).
Solutions of all compounds were prepared by microplate liquid handling equipment such as Janus or Precision 2000. Compounds, dissolved in DMSO were stored in a Freezer. Compounds were prepared from 30 mM in 100% DMSO.
All the compounds were diluted using Precision 2000 microplate liquid handling equipment. The top concentration of compound was 5 mM with 100% DMSO.
Step 3: Assay Plate Preparation (96 Well Plate)

AT1 receptor = AT1 receptor (Homo sapiens (Human), UniProt P30556); assay: AT1 receptor binding assay ([125I]-Sar1-Ile8-Angiotensin II, HEK293/AT1 receptor cell membranes); conditions: similar assay, at 10 μM
Sequence of AT1 receptor (P30556 whole entry, species assumed): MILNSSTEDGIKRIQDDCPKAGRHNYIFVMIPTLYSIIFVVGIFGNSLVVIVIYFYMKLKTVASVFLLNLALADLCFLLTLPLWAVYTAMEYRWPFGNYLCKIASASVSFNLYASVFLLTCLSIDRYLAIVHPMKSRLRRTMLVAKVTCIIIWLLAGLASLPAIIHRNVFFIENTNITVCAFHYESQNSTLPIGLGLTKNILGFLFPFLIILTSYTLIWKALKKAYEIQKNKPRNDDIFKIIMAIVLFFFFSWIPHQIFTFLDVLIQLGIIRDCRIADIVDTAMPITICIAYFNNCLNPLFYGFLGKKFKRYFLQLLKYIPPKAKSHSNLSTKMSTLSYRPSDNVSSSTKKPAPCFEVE
Excerpt: Biological Example 2: AT1 Receptor Binding
The same media, solutions, cell procedures and compound preparation was used as for Biological Example 1 but using HEK293/AT1 Receptor Transient Cells.

Row | SMILES | IC50 (AT2 receptor) | neurite outgrowth (neurite average length) (NG108-15 neurite cells) | AT1 receptor binding (AT1 receptor)
1 | O=C(O)C1Cc2c(OCc3ccccc3)cccc2N1C(=O)C(c1ccccc1)c1ccccc1 (stereo not drawn) [Compound 15, 4-(benzyloxy)-1-(2,2-diphenylacetyl)indoline-2-carboxylic acid] | – | inhibited | –
2 | O=C(O)[C@@H]1C[C@H](c2sccc2-c2ccccc2)CN1C(=O)C(c1ccccc1)c1ccccc1 [Compound 107, (2S,4S)-1-(2,2-diphenylacetyl)-4-(3-phenylthiophen-2-yl)-pyrrolidine-2-carboxylic acid] | 0.461 µM | – | –
3 | CN(C)S(=O)(=O)NC(=O)[C@@H]1C[C@H](OCCCc2ccccc2)CN1C(=O)C(c1ccccc1)c1ccccc1 [Compound 112, (2S,4S)—N—(N,N-dimethylsulfamoyl)-1-(2,2-diphenylacetyl)-4-(3-phenylpropoxy)pyrrolidine-2-carboxamide] | – | – | —: No significant inhibition of binding of the radiolabelled ligand even at top concentration tested (10 μM). Compounds 6, 112, 136 and 138 were also analysed in a similar assay and showed no AT1 receptor binding at 10 μM.

Further lines, with some results ahead:

Row | IC50 (AT2 receptor) | SMILES | neurite outgrowth (neurite average length) (NG108-15 neurite cells) | AT1 receptor binding (AT1 receptor)
4 | 0.089 µM | CN(CCCc1ccc(F)cc1)[C@H]1C[C@@H](C(N)=O)N(C(=O)C(c2ccccc2)c2ccccc2)C1 [Compound 136, (2S,4S)-1-(2,2-diphenylacetyl)-4-((3-(4-fluorophenyl)propyl)(methyl)amino)pyrrolidine-2-carboxamide] | – | —: No significant inhibition of binding of the radiolabelled ligand even at top concentration tested (10 μM). Compounds 6, 112, 136 and 138 were also analysed in a similar assay and showed no AT1 receptor binding at 10 μM.
5 | 0.173 µM | CN(CCCc1ccc(F)cc1)[C@H]1C[C@@H](C#N)N(C(=O)C(c2ccccc2)c2ccccc2)C1 [Compound 137, (2S,4S)-1-(2,2diphenylacetyl)-4-((3-(4-fluorophenyl)propyl)(methyl)amino)pyrrolidine-2-carbonitrile] | – | –
